Experiment: paclitaxel release profile from block-copolymer-coated stents in PBS with 0.5% Tween 20
Assay type: physicochemical
Conditions: release in PBS with 0.5% Tween 20, FIG. 1
Description: A solution is provided that contains the following: 99 wt % solvent system, 0.25 wt % paclitaxel and 0.75 wt % block copolymer. The copolymer is synthesized using known techniques such as those described in U.S. Pat. No. 5,741,331, U.S. Pat. No. 4,946,899 and U.S. Ser. No. 09/734,639. The solvent system consists of tetrahydrofuran (THF) and toluene, which are provided in varying ratios in this example. The solution is provided by (1) mixing the paclitaxel and tetrahydrofuran, (2) adding the copolymer, (3) adding the toluene, (4) thoroughly mixing (e.g., overnight), and (5) filtering.
The solution is then placed in a syringe pump and fed to a spray nozzle. A stent is mounted onto a holding device parallel to the nozzle and, if desired, rotated to ensure uniform coverage. Depending on the spray equipment used, either the component or spray nozzle can be moved while spraying such that the nozzle moves along the component while spraying for one or more passes.
After a coating is formed in this fashion, it is dried, for example, by placing it in a preheated oven for 30 minutes at 65° C., followed by 3 hours at 70° C.
Three coated stents are formed in this manner using (in addition to 0.25 wt % paclitaxel and 0.75 wt % block copolymer) the following solvent species in the following relative amounts: (T) 99 wt % THF, (2) 75 wt % THF, 24 wt % toluene, (3) 50 wt % THF, 49 wt % toluene, (4) 25 wt % THF, 74 wt % toluene, (5) 5 wt % THF, 94 wt % toluene. Release rate as a function of time and cumulative release as a function of time (referred to herein as the “release profile”) were then measured in PBS with 0.5% Tweeng 20 (polyoxyethylene(20) sorbitan monolaurate) available from Sigma-Aldrich. The results are graphically illustrated in FIG. 1.

paclitaxel release (release profile) (coating formed from higher THF-to-toluene ratios in the solvent system): more accelerated paclitaxel release
paclitaxel release (release profile) (coating formed from lower THF-to-toluene ratios in the solvent system): more extended paclitaxel release
paclitaxel release (release rate and cumulative release as a function of time) (stent coating of 0.25 wt % paclitaxel and 0.75 wt % block copolymer, THF solvent system with toluene added): reduced by the addition of toluene
Structure (SMILES): CC(=O)O[C@H]1C(=O)[C@@]2(C)[C@H]([C@H](OC(=O)c3ccccc3)[C@]3(O)C[C@H](OC(=O)[C@H](O)[C@@H](NC(=O)c4ccccc4)c4ccccc4)C(C)=C1C3(C)C)[C@]1(OC(C)=O)CO[C@@H]1C[C@@H]2O [paclitaxel]
